This is an account of results in ChEMBL document CHEMBL1149545, “Thyroid receptor ligands. Part 8: Thyromimetics derived from N-acylated-alpha-amino acid derivatives displaying modulated pharmacological selectivity compared with KB-141” (Bioorg Med Chem Lett, 2007).

The subject of experiment [1] is CHO-K1. The settings on record: Homo sapiens.
Description: (§1) Activity against TRAF-alpha-1 expressed in CHOK1 cells by alkaline phosphatase reporter gene assay
Experiment [2] concerns CHO-K1. To be noted: Homo sapiens. This is another data set of the same source.
Description: (§2) Activity against TRAFbeta expressed in CHOK1 cells by alkaline phosphatse reporter gene assay
Experiment [3] is described as follows: cells. To be noted: Homo sapiens, CHO-K1.
Description: as §2
A short description of experiment [4]: cells. To be noted: Homo sapiens, CHO-K1. This is another data set of the same source.
Description: as §1
Experiment [5] has as its target T1, Thyroid hormone receptor beta (Homo sapiens, UniProt P10828).
T1 sequence (P10828 whole entry): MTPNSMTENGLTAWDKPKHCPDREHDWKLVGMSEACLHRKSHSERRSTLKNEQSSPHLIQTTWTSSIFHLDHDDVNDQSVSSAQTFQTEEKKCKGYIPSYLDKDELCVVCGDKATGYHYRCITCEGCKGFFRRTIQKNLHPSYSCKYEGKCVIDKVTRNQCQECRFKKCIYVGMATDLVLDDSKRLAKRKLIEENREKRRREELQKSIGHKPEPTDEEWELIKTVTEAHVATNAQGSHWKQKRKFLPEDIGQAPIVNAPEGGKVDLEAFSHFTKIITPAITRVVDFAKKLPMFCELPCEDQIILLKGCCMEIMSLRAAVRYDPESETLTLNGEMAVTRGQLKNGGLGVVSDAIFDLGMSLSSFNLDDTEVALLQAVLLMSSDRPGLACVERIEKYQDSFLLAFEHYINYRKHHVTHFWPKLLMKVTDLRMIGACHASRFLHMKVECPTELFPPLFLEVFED
In words: biochemical.
Description: Binding affinity at human thyroid hormone receptor beta-1 expressed in CHOK1 cells

For a further experiment, the species on record is Homo sapiens. The experiment in a line: Selectivity ratio of IC50 for thyroid hormone receptor alpha-1 to IC50 for thyroid hormone receptor beta-1.
In experiment [6] the target is T2, Thyroid hormone receptor alpha (Homo sapiens, UniProt P10827).
T2 sequence (P10827 whole entry): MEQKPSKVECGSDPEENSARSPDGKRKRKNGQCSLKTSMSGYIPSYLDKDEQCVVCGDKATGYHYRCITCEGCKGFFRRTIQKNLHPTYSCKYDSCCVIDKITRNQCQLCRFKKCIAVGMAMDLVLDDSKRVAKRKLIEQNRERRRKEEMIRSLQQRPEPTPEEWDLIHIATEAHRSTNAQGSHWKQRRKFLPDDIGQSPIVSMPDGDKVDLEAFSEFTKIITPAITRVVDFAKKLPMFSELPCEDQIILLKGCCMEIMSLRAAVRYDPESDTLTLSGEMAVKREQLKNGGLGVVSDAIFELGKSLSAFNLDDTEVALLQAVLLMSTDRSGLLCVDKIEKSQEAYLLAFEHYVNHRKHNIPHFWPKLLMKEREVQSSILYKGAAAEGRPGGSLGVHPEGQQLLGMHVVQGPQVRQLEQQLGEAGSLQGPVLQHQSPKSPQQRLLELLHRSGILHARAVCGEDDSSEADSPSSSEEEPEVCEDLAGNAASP
In words: biochemical.
Description: Binding affinity at human thyroid hormone receptor alpha 1 expressed in CHOK1 cells

The test system of experiment [7] is Rattus norvegicus. The experiment in a line: Decrease in cholesterol in po dosed cholesterol-fed rat. The format is functional.
Experiment [8] concerns Rattus norvegicus. In words: Decrease in TSH in po dosed cholesterol-fed rat. It is filed as functional.
The subject of experiment [9] is Rattus norvegicus. The experiment in a line: Increase in heart rate in po dosed cholesterol-fed rat. The format is functional.
The species named for experiment [10] is Rattus norvegicus. The experiment in a line: Ratio of ED15 for heart rate in cholesterol-fed rat to ED50 for cholesterol level in cholesterol-fed rat. It is filed as functional.
Experiment [11] is filed under the species Rattus norvegicus. The experiment in a line: Ratio of ED30 for TSH in cholesterol-fed rat to ED50 for cholesterol level in cholesterol-fed rat. The format is functional.

As usually defined, the EC50 is the concentration that produces a half-maximal response. A high value points to lower potency in that assay. As usually defined, the IC50 is the concentration that gives 50% inhibition. Read a high IC50 as weaker potency in that assay. Take `CC(C)c1cc(Oc2c(Br)cc(CC(=O)N[C@H](CC(=O)O)C(=O)O)cc2Br)ccc1O`: the Activity was 74% in the experiment on CHO-K1 [1] and 88% with CHO-K1 [2]. For the same compound, the EC50 in “cells [3]” came to 38 nM; in the experiment “cells [4]”, 66 nM. Moreover, the 50% inhibitory concentration (IC50) in experiment [5] was determined as 26 nM; in experiment [6] it was 168 nM. In the experiment filed under Homo sapiens, the Ratio IC50 came to 3.8.

On to `CC(C)c1cc(Oc2c(Br)cc(CC(=O)N[C@@H](C)C(=O)O)cc2Br)ccc1O`, for which the Activity was 81% in the experiment with CHO-K1 [1] and 92% in the experiment on CHO-K1 [2]. Further, the EC50 in “cells [3]” was found to be 2.6 nM; in the experiment “cells [4]”, 7.2 nM. Further, the values for the IC50 in [5] and in [6] were 1.3 nM and 10 nM, respectively. Besides, in the experiment filed under Homo sapiens, the Ratio IC50 came out at 4.5.

As to `CC(C)c1cc(Oc2c(Br)cc(CC(=O)N[C@@H](C(=O)O)c3ccccc3)cc2Br)ccc1O`, the results for the Activity with CHO-K1 [1] and in the experiment on CHO-K1 [2] were 65% and 85%, respectively. Moreover, the values for the concentration giving a half-maximal response (EC50) in “cells [3]” and in the experiment “cells [4]” were 0.73 nM and 1.5 nM, respectively. Besides, the IC50 in experiment [5] was 0.6 nM; in experiment [6], 5.5 nM. Besides, the Ratio IC50 in the experiment filed under Homo sapiens turned out to be 6.

For `CC(C)c1cc(Oc2c(Br)cc(CC(=O)N[C@H](C(=O)O)C(C)C)cc2Br)cc(Cl)c1O`, the Activity came to 21% in the experiment on CHO-K1 [1] and 31% in the experiment with CHO-K1 [2]. For the same compound, the 50% effective concentration (EC50) in the experiment “cells [3]” turned out to be 210 nM; in “cells [4]”, 65 nM. The results for the half-maximal inhibitory concentration (IC50) in experiment [5] and in experiment [6] were 1400 nM and 670 nM, respectively. The Ratio IC50 in the experiment filed under Homo sapiens amounted to 0.29.

For `CC(C)c1cc(Oc2c(Br)cc(CC(=O)N[C@H](C)C(=O)O)cc2Br)ccc1O`, the Activity in the experiment on CHO-K1 [1] amounted to 83%; in the experiment on CHO-K1 [2] it was 100%. The 50% effective concentration (EC50) in the experiment “cells [3]” came to 7.6 nM; in “cells [4]” it was 15 nM. In addition, the results for the half-maximal inhibitory concentration (IC50) in experiment [5] and in [6] were 5.9 nM and 83 nM, respectively. The Ratio IC50 in the experiment filed under Homo sapiens is 8.3.

One may read the ED50 as the midpoint of the dose-response relation. High values mean a need for a large dose, low ones an effect at a small dose. In the experiment on Rattus norvegicus [7], `N[C@@H](Cc1cc(I)c(Oc2ccc(O)c(I)c2)c(I)c1)C(=O)O` [LIOTHYRONINE] had a median effective dose (ED50) of 21 nmol/kg/day. Further, in the experiment with Rattus norvegicus [8], the ED30 came out at 6.7 nmol/kg/day. The same compound showed an ED15 in the experiment on Rattus norvegicus [9] of 31 nmol/kg/day.

Regarding `Cc1cc(Oc2c(Br)cc(CC(=O)N[C@H](C(=O)O)C(C)C)cc2Br)cc(C(C)C)c1O`, the values for the Activity in the experiment on CHO-K1 [1] and with CHO-K1 [2] were 13% and 27%, respectively. For the same compound, the concentration for a half-maximal effect (EC50) stood at 1100 nM in “cells [3]” and 170 nM in “cells [4]”. Also, the IC50 was 2600 nM in [5] and 1500 nM in [6]. The Ratio IC50 in the experiment filed under Homo sapiens was determined as 0.34.

For `CC(C)c1cc(Oc2c(Br)cc(CC(=O)N[C@H](C(=O)O)C(C)C)cc2Br)cc(F)c1O`, the results for the Activity with CHO-K1 [1] and in the experiment with CHO-K1 [2] were 78% and 88%, respectively. Also, the EC50 is 11 nM in “cells [3]” and 17 nM in “cells [4]”. For the same compound, the half-inhibitory concentration (IC50) in experiment [5] was determined as 12 nM; in [6], 88 nM. Besides, in the experiment listed under Homo sapiens, the Ratio IC50 was determined as 4.3.

Take `CC(C)c1cc(Oc2c(Cl)cc(CC(=O)O)cc2Cl)ccc1O`: the 50% effective dose (ED50) in the experiment with Rattus norvegicus [7] is 72 nmol/kg/day. In the experiment with Rattus norvegicus [8], this compound displayed an ED30 of 32 nmol/kg/day. The same compound came in with an ED15 in the experiment on Rattus norvegicus [9] of 2900 nmol/kg/day.

Consider `CC(C)c1cc(Oc2c(Br)cc(CC(=O)N[C@H](C(=O)O)C(C)C)cc2Br)ccc1O`, for which the Activity in the experiment on CHO-K1 [1] is 78%; in the experiment on CHO-K1 [2], 92%. The Ratio in the experiment listed under Rattus norvegicus [10] was determined as 19; in the experiment listed under Rattus norvegicus [11], 3. In the experiment with Rattus norvegicus [7], this compound showed an ED50 of 82 nmol/kg/day. In the experiment with Rattus norvegicus [8], this compound displayed an ED30 of 242 nmol/kg/day. Further, the figures for the half-maximal effective concentration (EC50) in “cells [3]” and in the experiment “cells [4]” were 0.77 nM and 1.4 nM, respectively. Also, the IC50 in experiment [5] turned out to be 0.27 nM; in experiment [6], 4.3 nM. In the experiment listed under Homo sapiens, the Ratio IC50 is 9.4. In the experiment with Rattus norvegicus [9], this compound gave an ED15 of 1580 nmol/kg/day.

For `CC(C)c1cc(Oc2c(Br)cc(CC(=O)N[C@H](C(=O)O)c3ccccc3)cc2Br)ccc1O`, the IC50 in experiment [5] amounted to 0.78 nM; in [6], 7.5 nM. For the same compound, the Ratio IC50 in the experiment filed under Homo sapiens turned out to be 5.7.

On to `CC(C)c1cc(Oc2c(Br)cc(CC(=O)N[C@@H](CC(=O)O)C(=O)O)cc2Br)ccc1O`, for which the Activity in the experiment on CHO-K1 [1] was 72%; in the experiment on CHO-K1 [2], 84%. Also, the figures for the half-maximal effective concentration (EC50) in “cells [3]” and in the experiment “cells [4]” were 1300 nM and 1500 nM, respectively. The 50% inhibitory concentration (IC50) was determined as 290 nM in experiment [5] and 460 nM in [6]. Moreover, in the experiment listed under Homo sapiens, the Ratio IC50 amounted to 0.9.

In the case of `CC(C)c1cc(Oc2c(Br)cc(CC(=O)NCC(=O)O)cc2Br)ccc1O`, the Activity was 75% in the experiment on CHO-K1 [1] and 85% in the experiment with CHO-K1 [2]. Moreover, the EC50 was 42 nM in “cells [3]” and 103 nM in “cells [4]”. Further, the values for the IC50 in experiment [5] and in [6] were 2.7 nM and 26 nM, respectively. Moreover, the Ratio IC50 in the experiment filed under Homo sapiens was determined as 5.9.

For `CC(C)c1cc(Oc2c(Br)cc(CC(=O)N[C@@H](C(=O)O)C(C)C)cc2Br)ccc1O`, the Activity in the experiment on CHO-K1 [1] was 88%; in the experiment with CHO-K1 [2] it was 100%. Further, the figures for the EC50 in the experiment “cells [3]” and in “cells [4]” were 1.2 nM and 2.3 nM, respectively. The values for the IC50 in [5] and in experiment [6] were 0.71 nM and 9.8 nM, respectively. Besides, the Ratio IC50 in the experiment filed under Homo sapiens worked out at 8.2.
